Strand notation (5' to 3'): a small letter for the sugar, then the base; units joined by * are phosphorothioate-linked, units joined directly phosphodiester-linked; [ ] holds rarer units or linkages, { } end groups; capitals alone tell only the bases. e = 2'-O-(2-methoxyethyl) (MOE); [5mC] = 5-methylcytosine; d = 2'-deoxy (DNA)
test system: human CETP mRNA; test: Antisense inhibition of human CETP mRNA in primary hepatocytes from huCETP transgenic mice (Example 4); type: cell-based, mouse; details: 100 nM, cytofectin, ~24 hours
Method: Transgenic mice expressing human CETP, controlled by its natural flanking region, increase expression of this gene in response to hypercholesterolemia (Jiang, X. C. et al., J. Clin. Invest. 1992. 90: 1290-1295). These mice were utilized for the following studies. Antisense oligonucleotides targeted to a CETP nucleic acid and described in Example 1 were tested for their effect on CETP mRNA transcript in vitro. Cultured primary hepatocytes from huCETP transgenic mice, at a density of 17,500 cells per well in a 96-well plate, were transfected using cytofectin reagent with 100 nM or 200 nM antisense oligonucleotide. After approximately 24 hours, RNA was isolated from the cells and CETP mRNA levels were measured by quantitative real-time PCR. CETP mRNA transcript levels were adjusted according to total RNA content, as measured by the house-keeping gene, GAPDH mRNA levels. Results are presented in Table 6 as percent inhibition of CETP, relative to untreated control cells.

| Substance | Percent inhibition of human CETP mRNA |
| --- | --- |
| ISIS 349495: 5-10-5 MOE gapmer AGGAATTTCACCATCACTGA (eA*eG*eG*eA*eA*dT*dT*dT*d[5mC]*dA*d[5mC]*d[5mC]*dA*dT*d[5mC]*eA*e[5mC]*eT*eG*eA) | 61% |
| ISIS 349465: 5-10-5 MOE gapmer GAGACATCAATGGACTTGGC (eG*eA*eG*eA*e[5mC]*dA*dT*d[5mC]*dA*dA*dT*dG*dG*dA*d[5mC]*eT*eT*eG*eG*e[5mC]) | 50% |
| ISIS 349486: 5-10-5 MOE gapmer GAAAGCTACCTTGGCCAGCG (eG*eA*eA*eA*eG*d[5mC]*dT*dA*d[5mC]*d[5mC]*dT*dT*dG*dG*d[5mC]*e[5mC]*eA*eG*e[5mC]*eG) | 72% |
| ISIS 349483: 5-10-5 MOE gapmer CTCTGAGACATTCTTGTAGA (e[5mC]*eT*e[5mC]*eT*eG*dA*dG*dA*d[5mC]*dA*dT*dT*d[5mC]*dT*dT*eG*eT*eA*eG*eA) | 77% |
| ISIS 349457: 5-10-5 MOE gapmer TCTGGATCACCTTGGCAGTC (eT*e[5mC]*eT*eG*eG*dA*dT*d[5mC]*dA*d[5mC]*d[5mC]*dT*dT*dG*dG*e[5mC]*eA*eG*eT*e[5mC]) | 42% |

same assay, conditions: 200 nM, cytofectin, ~24 hours

| Substance | Percent inhibition of human CETP mRNA |
| --- | --- |
| ISIS 349495: 5-10-5 MOE gapmer AGGAATTTCACCATCACTGA (eA*eG*eG*eA*eA*dT*dT*dT*d[5mC]*dA*d[5mC]*d[5mC]*dA*dT*d[5mC]*eA*e[5mC]*eT*eG*eA) | 74% |
| ISIS 349465: 5-10-5 MOE gapmer GAGACATCAATGGACTTGGC (eG*eA*eG*eA*e[5mC]*dA*dT*d[5mC]*dA*dA*dT*dG*dG*dA*d[5mC]*eT*eT*eG*eG*e[5mC]) | 66% |
| ISIS 349486: 5-10-5 MOE gapmer GAAAGCTACCTTGGCCAGCG (eG*eA*eA*eA*eG*d[5mC]*dT*dA*d[5mC]*d[5mC]*dT*dT*dG*dG*d[5mC]*e[5mC]*eA*eG*e[5mC]*eG) | 53% |
| ISIS 349483: 5-10-5 MOE gapmer CTCTGAGACATTCTTGTAGA (e[5mC]*eT*e[5mC]*eT*eG*dA*dG*dA*d[5mC]*dA*dT*dT*d[5mC]*dT*dT*eG*eT*eA*eG*eA) | 63% |
| ISIS 349457: 5-10-5 MOE gapmer TCTGGATCACCTTGGCAGTC (eT*e[5mC]*eT*eG*eG*dA*dT*d[5mC]*dA*d[5mC]*d[5mC]*dT*dT*dG*dG*e[5mC]*eA*eG*eT*e[5mC]) | 30% |

test system: human CETP mRNA; test: Antisense inhibition of human CETP mRNA in SW872 liposarcoma cells (Example 1); type: cell-based; details: 150 nM antisense oligonucleotide, lipofectin, ~24 hours, relative to untreated control cells
Method: Antisense oligonucleotides targeted to a CETP nucleic acid were tested for their effect on CETP mRNA transcript in vitro. Cultured SW872 liposarcoma cells at a density of 50,000 cells per well in a 24-well plate were transfected using lipofectin reagent with 150 nM antisense oligonucleotide. After approximately 24 hours, RNA was isolated from the cells and CETP mRNA levels were measured by quantitative real-time PCR. A human primer probe set (forward sequence […], designated herein as SEQ ID NO: 38; reverse sequence GGCTCACGCCTTTGCTGTT, designated herein as SEQ ID NO: 39; probe sequence […], designated herein as SEQ ID NO: 40) was used to quantitate CETP mRNA. CETP mRNA transcript levels were adjusted according to total RNA content, as measured by the house-keeping gene, GAPDH mRNA levels. GAPDH was measured using a primer probe set with the sequence as set forth in SEQ ID NOs: 10, 11, 13. Results are presented as percent inhibition of CETP, relative to untreated control cells.
The antisense oligonucleotides in Table 3 are 5-10-5 gapmers, where the gap segment comprises ten 2′-deoxynucleosides and each wing segment comprises five 2′-MOE nucleosides. Each nucleotide in the 5′ wing segment and each nucleotide in the 3′ wing segment has a 2′-MOE modification. The internucleoside linkages throughout each gapmer are phosphorothioate (P═S) linkages. All cytosine residues throughout each gapmer are 5-methylcytosines. ‘Target start site’ indicates the 5′-most nucleotide to which the antisense oligonucleotide is targeted. ‘Target stop site’ indicates the 3′-most nucleotide to which the antisense oligonucleotide is targeted. All the antisense oligonucleotides listed in Table 3 target human CETP mRNA, designated herein as SEQ ID NO: 1 (GENBANK Accession No. M30185.1).

| Substance | % inhibition |
| --- | --- |
| ISIS 349495: 5-10-5 MOE gapmer AGGAATTTCACCATCACTGA (eA*eG*eG*eA*eA*dT*dT*dT*d[5mC]*dA*d[5mC]*d[5mC]*dA*dT*d[5mC]*eA*e[5mC]*eT*eG*eA) | 58% |
| ISIS 349465: 5-10-5 MOE gapmer GAGACATCAATGGACTTGGC (eG*eA*eG*eA*e[5mC]*dA*dT*d[5mC]*dA*dA*dT*dG*dG*dA*d[5mC]*eT*eT*eG*eG*e[5mC]) | 87% |
| ISIS 349486: 5-10-5 MOE gapmer GAAAGCTACCTTGGCCAGCG (eG*eA*eA*eA*eG*d[5mC]*dT*dA*d[5mC]*d[5mC]*dT*dT*dG*dG*d[5mC]*e[5mC]*eA*eG*e[5mC]*eG) | 55% |
| ISIS 349483: 5-10-5 MOE gapmer CTCTGAGACATTCTTGTAGA (e[5mC]*eT*e[5mC]*eT*eG*dA*dG*dA*d[5mC]*dA*dT*dT*d[5mC]*dT*dT*eG*eT*eA*eG*eA) | 85% |
| ISIS 349457: 5-10-5 MOE gapmer TCTGGATCACCTTGGCAGTC (eT*e[5mC]*eT*eG*eG*dA*dT*d[5mC]*dA*d[5mC]*d[5mC]*dT*dT*dG*dG*e[5mC]*eA*eG*eT*e[5mC]) | 52% |

test system: human CETP mRNA; test: Dose-dependent antisense inhibition of human CETP in SW872 liposarcoma cells (Example 2); type: cell-based; details: 50 nM, Lipofectin, ~16 hours (Example 2)
Method: Cells were plated at a density of 50,000 cells per well in a 24-well plate and transfected using Lipofectin reagent with 50 nM, 150 nM, and 300 nM concentrations of each antisense oligonucleotide. After approximately 16 hours, RNA was isolated from the cells and CETP mRNA levels were measured by quantitative real-time PCR. CETP mRNA levels were normalized to total RNA content, as measured by the house-keeping gene, GAPDH mRNA levels. Results are presented in Table 4 as percent inhibition of CETP, relative to untreated control cells.

| Substance | percent inhibition of CETP |
| --- | --- |
| ISIS 349465: 5-10-5 MOE gapmer GAGACATCAATGGACTTGGC (eG*eA*eG*eA*e[5mC]*dA*dT*d[5mC]*dA*dA*dT*dG*dG*dA*d[5mC]*eT*eT*eG*eG*e[5mC]) | 96% |
| ISIS 349483: 5-10-5 MOE gapmer CTCTGAGACATTCTTGTAGA (e[5mC]*eT*e[5mC]*eT*eG*dA*dG*dA*d[5mC]*dA*dT*dT*d[5mC]*dT*dT*eG*eT*eA*eG*eA) | 100% |

same assay, conditions: 150 nM, Lipofectin, ~16 hours (Example 2)

| Substance | percent inhibition of CETP |
| --- | --- |
| ISIS 349465: 5-10-5 MOE gapmer GAGACATCAATGGACTTGGC (eG*eA*eG*eA*e[5mC]*dA*dT*d[5mC]*dA*dA*dT*dG*dG*dA*d[5mC]*eT*eT*eG*eG*e[5mC]) | 87% |
| ISIS 349483: 5-10-5 MOE gapmer CTCTGAGACATTCTTGTAGA (e[5mC]*eT*e[5mC]*eT*eG*dA*dG*dA*d[5mC]*dA*dT*dT*d[5mC]*dT*dT*eG*eT*eA*eG*eA) | 98% |

same assay, conditions: 300 nM, Lipofectin, ~16 hours (Example 2)

| Substance | percent inhibition of CETP |
| --- | --- |
| ISIS 349465: 5-10-5 MOE gapmer GAGACATCAATGGACTTGGC (eG*eA*eG*eA*e[5mC]*dA*dT*d[5mC]*dA*dA*dT*dG*dG*dA*d[5mC]*eT*eT*eG*eG*e[5mC]) | 96% |
| ISIS 349483: 5-10-5 MOE gapmer CTCTGAGACATTCTTGTAGA (e[5mC]*eT*e[5mC]*eT*eG*dA*dG*dA*d[5mC]*dA*dT*dT*d[5mC]*dT*dT*eG*eT*eA*eG*eA) | 85% |

Source: patent US20130053430A1, “MODULATION OF CETP EXPRESSION” (Isis Pharmaceuticals, Inc., priority 2010, published 2013)
